Test results as given in PubChem BioAssay AID179 (DTP/NCI, 2004).
Where “and” joins values, the source holds several entries; their conditions need not be identical. Equal entries are not always repeated. Calls of active or inactive are those of the source.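 The calls were made as follows: active = compounds giving half or more protection of infected cells from virus-caused growth loss, again on retest; inactive = the rest.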 Where a SMILES comes first, the peptide text is derived from it.

Test system: CEM cells HIV-1 protection, formazan growth assay
Assay: NCI AIDS Antiviral Assay
Conditions: for IC50: measured here: growth of uninfected CEM cells
How it was run: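 Soluble formazan readout of cell growth; CEM cells ± HIV-1; 5 drug concs. ≥50% protection → retest; ≥50% again = moderately active; reproducible 100% = confirmed active.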

Row | SMILES | EC50 | IC50 | outcome
1 | CC(C)C1CC=NN1C(=O)OC(C)(C)C (stereo not drawn) | > 200 µM | > 200 µM | –
2 | CC#CC(O)(C(=O)OC1CCC2CCC1N2C)C1CCCC1 (stereo not drawn) | > 200 µM | > 200 µM | –
3 | CCCCCCCCCCn1cccc1/C=C/c1ccc(/C=C/c2cccn2CCCCCCCCCC)cc1 | – | – | inactive
4 | N#Cc1nc(-c2ccccn2)oc1N | > 200 µM | > 200 µM | –
5 | COc1ccc(C2c3cc4c(cc3C(O)C3CCC(=O)N23)OCO4)cc1 (stereo not drawn) | > 200 µM | > 200 µM | –
6 | CC(C)(C)[Si](C)(C)OCC1OC(n2ccc(=O)[nH]c2=O)C(O[Si](C)(C)C(C)(C)C)C1(CC#N)Sc1ccccc1 (stereo not drawn) | > 200 µM | 10.7 µM | –
7 | O=C1CC2c3c(OCc4ccccc4)cc(OCc4ccccc4)cc3OC2O1 (stereo not drawn) | > 25.7 µM | > 25.7 µM | –
8 | Cc1ccc(Nc2nc3nc[nH]c3c(=O)[nH]2)cc1CO | > 200 µM | > 200 µM | –
9 | CON(C)C(=O)C(Cc1ccccc1)NC(=O)OCc1ccccc1 (stereo not drawn) | > 200 µM | 182 µM | –
10 | CSc1sc(C)cc1-c1nsc(=O)o1 | > 200 µM | > 200 µM | –
11 | CCCCCCCCCCCCCCCCCC(=O)O[C@H](COC(=O)CCCCCCCCCCC)COC(=O)CCCCCCCCCCCCCCC | > 100 µM | > 100 µM | –
12 | CC(C)(C)CC(C)(C)c1ccc(O)c(SSc2cc(C(C)(C)CC(C)(C)C)ccc2O)c1 | > 200 µM | 25.7 µM | –
13 | Cc1cc2c(C(C)C)c(O)c(O)c(C=Nc3cccc(Cl)c3)c2c(O)c1-c1c(C)cc2c(C(C)C)c(O)c(O)c(C=Nc3cccc(Cl)c3)c2c1O | – | – | inactive
14 | CN(C)CCCNC(=O)c1cc(NC(=O)c2cc(NC(=O)c3cc(N4C(=O)c5ccccc5C4=O)cn3C)cn2C)cn1C | > 81.3 µM | 57.5 µM | –
15 | COCC(/C=N/N=C(N)N)=N\N=C(N)N | > 32.4 µM | > 32.4 µM | –
16 | CCOC(=O)CN=C1Nc2ccccc2C(=O)N2CSCC12 (stereo not drawn) | > 200 µM | 158 µM | –
17 | N#CC1(c2nc3ccccc3o2)C(=O)C(=O)N(C2C3CC4CC(C3)CC2C4)C(=O)C1=O (stereo not drawn) | > 107 µM | > 107 µM | –
18 | CCc1cccc(C)c1NC(=O)CCc1nc(=S)[nH][nH]1 | > 617 µM | > 617 µM | –
19 | COc1ccc(S(=O)(=O)NCCSSCCNS(=O)(=O)c2ccc(OC)cc2)cc1 | > 200 µM | 26.9 µM | –
20 | CCOC(=O)C(C)c1nc2c(Cl)c3ncccc3cc2[nH]c1=O (stereo not drawn) | > 200 µM | > 200 µM | –
21 | COc1ccc(-c2c3c(nc4nc(SCCc5ccccc5)nc(N)c24)CCCC3)cc1OC | > 200 µM | > 200 µM | –

Row | SMILES | EC50 | IC50 | outcome
22 | O=C(/N=C/c1c(O)c2ccccc2oc1=O)NC1CCCCC1 | > 41.7 µM | > 41.7 µM | –
23 | Oc1c2cc(Br)cc1CCc1cc(Br)cc(c1O)CC2 | > 200 µM | 25.7 µM | –
24 | COc1ccc2c(c1)NC(=O)C(O)(Cc1ccccc1)C2=O (stereo not drawn) | > 200 µM | > 200 µM | –
25 | OCC1OC(O)C(N=C/C=C/c2ccccc2)C(O)C1O (stereo not drawn) | > 200 µM | 22.9 µM | –
26 | Cc1cc(=O)oc2c3c(ccc12)OC(c1ccc(Br)cc1)CC3=O (stereo not drawn) | > 200 µM | 46.8 µM | –
27 | C[C@]12CCC(=O)C=C1CC[C@@H]1C2CC[C@]2(C)NC(=O)C(C#N)CC12 (stereo partly drawn) | – | – | inactive
28 | O=C(O)C(CS)N=c1c2ccccc2n(O)c2ccccc12 (stereo not drawn) | – | – | inactive
29 | COc1cccc2c1[C@H]1OC(=O)NC1CCCCC2 (stereo partly drawn) | > 200 µM | > 200 µM | –
30 | O=c1oc2ccccc2c(O)c1Sc1c(O)c2ccccc2oc1=O | – | – | inactive
31 | O=c1oc2ccccc2c(O)c1C(c1ccc(OCc2ccccc2)cc1)c1c(O)c2ccccc2oc1=O | > 200 µM | 30.2 µM | –
32 | O=C(Nc1ccc(C2=NCCN2)cc1)c1cncc(C(=O)Nc2ccc(C3=NCCN3)cc2)c1 | 9.77 µM | 132 µM | –
33 | COC(=O)c1ccc(/C=C/c2cc(O)ccc2O)cc1 | > 20 µM | 3.09 µM | –
34 | COC(=O)c1ccccc1CC1Cc2ccc3c(c2C1=O)CCCC3 (stereo not drawn) | > 200 µM | > 200 µM | –
35 | CC(=O)OCCOCn1c2c(c(=S)[nH]c1=O)CCC2 | > 200 µM | > 200 µM | –
36 | Cc1ccc(SSc2ccc([N+](=O)[O-])cc2[N+](=O)[O-])cc1 | > 200 µM | 9.12 µM | –
37 | O=c1[nH]nc(-c2ccccc2)n1Nc1ccccc1 | > 200 µM | > 200 µM | –
38 | CC(C)(C)OC(=O)NC1CC=CCC1NC(=O)OC(C)(C)C (stereo not drawn) | > 200 µM | > 200 µM | –
39 | CC(=O)NS(=O)(=O)c1ccc(NC(=O)c2ccccc2SC(=O)CCCCBr)cc1 | 12.3 µM | 148 µM | –
40 | CNS(=O)(=O)NN(C)S(=O)(=O)c1ccc(C)cc1 | > 617 µM | > 200 µM | –
41 | CC(C)=C=CCN(C)Cc1ccccc1 | > 309 µM | > 309 µM | –
42 | Cc1ccc(OCC2OC(n3cnc4c(Cl)nc(Nc5cc(Cl)cc(Cl)c5)nc43)CC2Oc2ccc(C)cc2)cc1 (stereo not drawn) | > 200 µM | > 200 µM | –

Row | SMILES | EC50 | IC50 | outcome
43 | COC1C(O)CC(OC2CC(OC3CC(O[C@@H]4C(=O)c5c(cc6cc(OC7CC(OC8CC(O)C(O)C(C)O8)C(O)C(C)O7)c(C)c(O)c6c5O)C[C@H]4[C@H](OC)C(=O)[C@@H](O)[C@@H](C)O)OC(C)C3O)OC(C)C2O)OC1C (stereo partly drawn) | > 0.166 µM | 0.011 µM | –
44 | N#CCCC1C(=O)CCCC1=O | > 200 µM | > 200 µM | –
45 | COc1ccc2cc(C(C)C(=O)N3CCOC3=O)ccc2c1 (stereo not drawn) | > 200 µM | > 200 µM | –
46 | S=C(NCCc1ccccc1)N1CCC(CCCC2CCN(C(=S)NCCc3ccccc3)CC2)CC1 | > 200 µM | > 200 µM | –
47 | O=c1c2ccccc2[nH]c(=S)n1-c1ccc(Cl)cc1 | > 200 µM | > 200 µM | –
48 | Cc1nc(C)c2c(n1)Oc1ccc3ccccc3c1C2 | > 49 µM | > 49 µM | –
49 | CC1(C)OC2CN(C(=O)OCc3ccccc3)C(CO)C2O1 (stereo not drawn) | – | – | inactive
50 | CC(C)(C)[Si](C)(C)OC1C(/C=N\O)OC(n2cnc3c(N)ncnc32)C1O[Si](C)(C)C(C)(C)C (stereo not drawn) | > 200 µM | 3.02 µM | –
51 | OC[C@@H]1C(O)[C@H](O)[C@H]2C(O)CCN12 (stereo partly drawn) | > 1320 µM | > 1320 µM | –
52 | CC1=CC[C@H](C[C@H](C#CCCCC2OCCO2)O[Si](C(C)C)(C(C)C)C(C)C)C(=O)CC1 | > 200 µM | 9.77 µM | –
53 | CC(=O)Nc1ccc(OCC(O)CO)cc1 (stereo not drawn) | > 1120 µM | 832 µM | –
54 | CC1CCCN1c1ccnc2cc(Cl)ccc12 (stereo not drawn) | > 1000 µM | 288 µM | –
55 | CC1=NS(=O)(=O)c2cc(Cl)ccc2N1 | > 562 µM | > 407 µM and 537 µM | –
56 | CC[P+](C)(Cc1ccccc1)c1ccccc1 (stereo not drawn) | 0.0631 µM | 81.3 µM | –
57 | NC(=O)c1cc2ccc(O)c(O)c2cn1 | > 209 µM | 2.95 µM | –
58 | C=C(C)COC(=O)C1CC2OC2CC1C(=O)OCC(=C)C (stereo not drawn) | > 200 µM | 166 µM | –
59 | C/C=C1\CN2CCC34c5ccccc5N(C)C35OCC4(C(=O)OC)C1CC25 (stereo not drawn) | > 83.2 µM | 25.7 µM | –
60 | Cc1ccc(NC(=O)c2[nH]c(=S)nc(N)c2-c2ccccc2C)cc1C | > 692 µM | > 692 µM | –
61 | CN(C)NC1=NS(=O)(=O)c2cc3c(cc2S1)N(N(C)C)C(=O)c1cc2c(cc1N(N(C)C)C3=O)SC(NN(C)C)=NS2(=O)=O | > 200 µM | 141 µM | –
62 | COc1ccc(NC(=S)N/N=C(\c2ccccc2)c2ccccn2)cc1 | > 0.2 µM | 0.0912 µM | –
63 | O=C(O)c1c2c(cc3c1CC1(Cc4cc5c(cc4C1=O)CCC5)C3)CCC2 (stereo not drawn) | > 200 µM | 72.4 µM | –

Row | SMILES | EC50 | IC50 | outcome
64 | CCP(=S)(CC)CCl | > 200 µM | > 200 µM | –
65 | Clc1ccc2nc3c(c(-c4ccccc4)nn3-c3ccccc3)c(-c3ccccc3)c2c1 | > 100 µM | > 100 µM | –
66 | Cc1ccc2c(c1)C1(c3ccc(Cl)cc3)Oc3ccc(C)cc3C(c3ccc(Cl)cc3)(O2)O1 | > 75.9 µM | > 75.9 µM | –
67 | CCC(C)C(NC(=O)C(CCC(N)=O)NC(=O)CN)C(=O)NC(Cc1ccccc1)C(=O)NC(CO)C(=O)NC(CCCN=C(N)N)C(N)=O (stereo not drawn) (H-GQIFSR-NH2; configuration not given here) | – | – | inactive
68 | COC(=O)/N=[N+](\[O-])C(c1ccccc1)c1ccccc1 | > 200 µM | 191 µM | –
69 | CCN(CC)C(=O)c1cc([N+](=O)[O-])c(=O)n2c1[nH]c1ccccc12 | > 200 µM | 151 µM | –
70 | COc1cc([C@H]2c3cc(O)c(OC)cc3CC3C(=O)OCC32)ccc1O (stereo partly drawn) | > 363 µM | > 363 µM | –
71 | C=CCN1C(=O)C(c2ccccc2)(c2ccccc2)NC1=S | > 85.1 µM | > 85.1 µM | –
72 | N#CC(=C1CCN(CCCC(=O)c2ccc(F)cc2)CC1)c1ccccc1 | > 200 µM | > 200 µM | –
73 | O=P1(c2ccccc2)Nc2cc(Cl)c(Cl)cc2N1 | > 200 µM | 64.6 µM | –
74 | Cc1cc(NS(=O)(=O)c2ccc(Nc3c4ccccc4nc4c(C(=O)N5CCN(CCOS(C)(=O)=O)CC5)cccc34)cc2)no1 | > 44.7 µM | > 44.7 µM | –
75 | COc1c2occc2c(CN)c2ccc(=O)oc12 | > 316 µM | 42.7 µM | –
76 | Cc1ccc(C)c(N2C(=O)C(=O)C(c3nc4ccccc4s3)/C(=N/N)C2=O)c1 (stereo not drawn) | > 50.1 µM | > 50.1 µM | –
77 | CCC(=O)c1ccc2[nH]c3c(C)c4c(=O)cc(C)[nH]c4c(C)c3c2c1 | > 100 µM | > 100 µM | –
78 | CC(=O)C1C(=O)C(=O)N(c2ccc(Cl)cc2C)C1=O (stereo not drawn) | > 93.3 µM | > 93.3 µM | –
79 | COC(=O)NCC(OC(=O)c1cc2c(cc1I)OCO2)C1=CCCCC1 (stereo not drawn) | > 28.8 µM | > 28.8 µM | –
80 | O=C(CCCn1ccnc1[N+](=O)[O-])NCCn1ccnc1[N+](=O)[O-] | > 200 µM | > 200 µM | –
81 | COc1cc2c(cc1-c1coc3cc(OCC=C(C)C)ccc3c1=O)OCO2 | > 200 µM | 7.08 µM | –
82 | CC1=C(C(=O)Nc2ccccc2C)C(/C=C/c2ccccc2)C(C(=O)Nc2ccccc2C)=C(C)N1 | – | – | inactive
83 | CCCS(=O)(=O)/C(=C(\c1ccc(Br)cc1)S(=O)(=O)CCC)c1ccc(Br)cc1 | > 2.63 µM | > 2.63 µM | –
